What all share (assay type): cell-based
For series [1], the species on record is Mus musculus. In words: Induction of read through activity at premature termination codon TGA (non-sense mutation associated with DMD disease) in 27-mer DNA stretch sequence of mouse dystrophin mdx gene transfected as a plasmid by connecting with beta-galactosidase and luciferase genes in COS7 cells assessed as ratio of luciferase activity to beta-galactosidase activity at 200 uM incubated for 48 hrs by dual luciferase reporter gene assay relative to control.

For series [2], the species on record is Mus musculus. In words: Induction of read through activity at premature termination codon TAA (non-sense mutation associated with DMD disease) in 27-mer DNA stretch sequence of mouse dystrophin mdx gene transfected as a plasmid by connecting with beta-galactosidase and luciferase genes in COS7 cells assessed as ratio of luciferase activity to beta-galactosidase activity at 200 uM incubated for 48 hrs by dual luciferase reporter gene assay relative to control. A general note: In a reporter assay the amount or activity of a reporter protein is the signal.

The species named for series [3] is Homo sapiens. In words: Induction of read through activity at premature termination codon TGA in human RLuc-TP53 R213X non-sense mutation sequence transfected in COS7 cells at 200 uM incubated for 48 hrs by dual luciferase reporter gene assay relative to control.
Series [4] is filed under the species Homo sapiens. Description: Induction of read through activity at premature termination codon TGA in human RLuc-LAMA2 C1546X non-sense mutation sequence transfected in COS7 cells at 200 uM incubated for 48 hrs by dual luciferase reporter gene assay relative to control.
The species entered for series [5] is Mus musculus. Description: Induction of read through activity at premature termination codon TAG (non-sense mutation associated with DMD disease) in 27-mer DNA stretch sequence of mouse dystrophin mdx gene transfected as a plasmid by connecting with beta-galactosidase and luciferase genes in COS7 cells assessed as ratio of luciferase activity to beta-galactosidase activity at 200 uM incubated for 48 hrs by dual luciferase reporter gene assay relative to control.

For series [6], the system named is HDQ-P1. Description: Induction of read through activity at premature termination codon TGA in human HDQ-P1 cells harboring TP53 R213X homozygous non-sense mutation sequence assessed as expression of full length p53 protein at 200 uM incubated for 72 hrs by automated capillary electrophoresis western analysis relative to vinculin expression.
Series [7] concerns COS-7. In words: Cytotoxicity against African green monkey COS7 cells assessed as decrease in cell viability by WST1 assay. Conditions: Chlorocebus aethiops.
Series [8] is filed under the species Mus musculus. Description: Induction of read through activity at premature termination codon TGA (non-sense mutation associated with DMD disease) in 27-mer DNA stretch sequence of mouse dystrophin mdx gene transfected as a plasmid by connecting with beta-galactosidase and luciferase genes in COS7 cells incubated for 48 hrs by dual luciferase reporter gene assay relative to TGP112.

For series [9], the species on record is Homo sapiens. In words: Induction of read through activity at premature termination codon TGA in human RLuc-CF W1282X non-sense mutation sequence transfected in COS7 cells at 200 uM incubated for 48 hrs by dual luciferase reporter gene assay relative to control.
For series [10], the species on record is Homo sapiens. In words: Induction of read through activity at premature termination codon TGA in human RLuc-CF G542X non-sense mutation sequence transfected in COS7 cells at 200 uM incubated for 48 hrs by dual luciferase reporter gene assay relative to control.
The subject of series [11] is HDQ-P1. In words: Induction of read through activity at premature termination codon TGA in human HDQ-P1 cells harboring TP53 R213X homozygous non-sense mutation sequence at 200 uM incubated for 72 hrs by automated capillary electrophoresis western analysis relative to G418.
The test system of series [12] is HDQ-P1. Description: Induction of read through activity at premature termination codon TGA in human HDQ-P1 cells harboring TP53 R213X homozygous non-sense mutation sequence assessed as expression of full length p53 protein at 12.5 uM incubated for 72 hrs by automated capillary electrophoresis western analysis relative to vinculin expression.
For series [13], the species on record is Mus musculus. Description: Induction of read through activity at premature termination codon TGA (non-sense mutation associated with DMD disease) in 27-mer DNA stretch sequence of mouse dystrophin mdx gene transfected as a plasmid by connecting with beta-galactosidase and luciferase genes in COS7 cells incubated for 48 hrs by dual luciferase reporter gene assay relative to (+)-G418.

For series [14], the species on record is Mus musculus. Description: Induction of read through activity at premature termination codon TGA (non-sense mutation associated with DMD disease) in 27-mer DNA stretch sequence of mouse dystrophin mdx gene transfected as a plasmid by connecting with beta-galactosidase and luciferase genes in COS7 cells incubated for 48 hrs by dual luciferase reporter gene assay relative to (+)-negamycin.

Series [15] relates to HDQ-P1. In words: Induction of read through activity at premature termination codon TGA in human HDQ-P1 cells harboring TP53 R213X homozygous non-sense mutation sequence assessed as expression of full length p53 protein at 100 uM incubated for 72 hrs by automated capillary electrophoresis western analysis relative to vinculin expression.
For series [16], the species on record is Homo sapiens. In words: Induction of read through activity at premature termination codon TAG in human RLuc-TP53 Q192X non-sense mutation sequence transfected in COS7 cells at 200 uM incubated for 48 hrs by dual luciferase reporter gene assay relative to control.
The species named for series [17] is Mus musculus. In words: Induction of read through activity at premature termination codon TGA (non-sense mutation associated with DMD disease) in 27-mer DNA stretch sequence of mouse dystrophin mdx gene transfected as a plasmid by connecting with beta-galactosidase and luciferase genes in COS7 cells incubated for 48 hrs by dual luciferase reporter gene assay.

The test system of series [18] is HDQ-P1. Description: Induction of read through activity at premature termination codon TGA in human HDQ-P1 cells harboring TP53 R213X homozygous non-sense mutation sequence assessed as expression of full length p53 protein at 25 uM incubated for 72 hrs by automated capillary electrophoresis western analysis relative to vinculin expression.
For series [19], the species on record is Homo sapiens. Description: Induction of read through activity at premature termination codon TGA in human RLuc-DMD R3381X non-sense mutation sequence transfected in COS7 cells at 200 uM incubated for 48 hrs by dual luciferase reporter gene assay relative to control.
Series [20] has as its system HDQ-P1. In words: Induction of read through activity at premature termination codon TGA in human HDQ-P1 cells harboring TP53 R213X homozygous non-sense mutation sequence assessed as expression of full length p53 protein at 50 uM incubated for 72 hrs by automated capillary electrophoresis western analysis relative to vinculin expression.
Series [21] relates to HDQ-P1. Description: Cytotoxicity against human HDQ-P1 cells at 200 uM. The following applies: hdq-p1, 200 µM.

Each structure is given as a SMILES string. Activity calls are given as the source filed them. The rule behind the calls is not given here.

For the molecule `CN(CC(=O)O)NC(=O)C[C@H](CCN)NC(=O)[C@@H](N)Cc1ccc(O)cc1`, the Ratio in series [1] is 2.59.

Take `CN(CC(=O)O)NC(=O)C[C@@H](N)CCN`: the Ratio in series [1] is 3.8 to 4.26; in [2], 1.2; in [5] it was 1.48; in series [6] it was 7.9. Further, the Activity in series [3] was 1.95%; in [4], 1.85%.

For the molecule `CCCCC[C@H](N)C(=O)N[C@@H](CCN)CC(=O)NN(C)CC(=O)O`, the Ratio in series [1] stood at 3.4.

`CCCCCCCCCCC[C@H](N)C(=O)N[C@@H](CCN)CC(=O)NN(C)CC(=O)O`: the half-inhibitory concentration (IC50) (as a rule, the concentration needed to halve the response being measured) in series [7] amounted to 68.2 µM.

Consider `CN(CC(=O)O)NC(=O)C[C@H](CCN)NC(=O)[C@@H](N)CC1CCCCC1`, for which the Ratio in series [1] turned out to be 5.87.

`CCCCCCC[C@H](N)C(=O)N[C@@H](CCN)CC(=O)NN(C)CC(=O)O`: the Ratio in [8] stood at 2; in series [1] it was 7.97.

Regarding `CN[C@@H](CC(C)C)C(=O)N[C@@H](CCN)CC(=O)NN(C)CC(=O)O`, in series [1], the Ratio stood at 2.45.

Turning to `CN(CC(=O)O)NC(=O)C[C@H](CCN)NC(=O)[C@@H](N)CN`, the Ratio in series [1] was 3.02.

For the molecule `CC[C@H](C)[C@H](N)C(=O)N[C@@H](CCN)CC(=O)NN(C)CC(=O)O`, the Ratio in series [1] was 1.83.

With `CCCCCCCCC[C@H](N)C(=O)N[C@@H](CCN)CC(=O)NN(C)CC(=O)O`, the result in series [9] and in series [16] was inactive. Also, the Activity in [10] was 2.25 to 7.3%; in series [3], 2.25 to 7.3%; in series [4], 6.34%; in series [17], “Dose-dependent effect”; in series [19], 2.25 to 7.3%. Besides, the Ratio is 3 in series [11]; 4 in series [8]; 16 to 18.3 in series [1]; 2.3 in series [12]; 2 in [13]; 2.24 in [2]. Besides, the Ratio was 10 in [14]; 48 in series [15]; 2.4 in series [18]; 4.39 in series [5]; 215 in series [6]; 6.7 in series [20].

On to `CN(CC(=O)O)NC(=O)C[C@H](CCN)NC(=O)[C@@H](N)CC(=O)O`, for which, in series [1], the Ratio worked out at 1.96.

With `CN(CC(=O)O)NC(=O)C[C@H](CCN)NC(=O)[C@@H](N)CCN`, the Ratio in [1] worked out at 3.25.

For the molecule `CN(CC(=O)O)NC(=O)C[C@H](CCN)NC(=O)[C@@H](N)Cc1ccccc1`, the Ratio in [1] came out at 2.99.

For the molecule `CN(CC(=O)O)NC(=O)C[C@H](CCN)NC(=O)[C@@H](N)CCCN`, the Ratio in series [1] is 2.96.

As to `CC(C)C[C@H](N)C(=O)N[C@@H](CCN)CC(=O)NN(C)CC(=O)O`, the Ratio in series [1] stood at 4.94.

For `CN(CC(=O)O)NC(=O)C[C@H](CCN)NC(=O)[C@@H](N)CCC(N)=O`, the Ratio in series [1] was determined as 1.62.

Regarding `C[C@H](N)C(=O)N[C@@H](CCN)CC(=O)NN(C)CC(=O)O`, in series [1], the Ratio was determined as 2.4.

As to `CN(CC(=O)O)NC(=O)C[C@H](CCN)NC(=O)[C@@H](N)CCCCN`, the Ratio in [1] worked out at 2.49.

Regarding `CN(CC(=O)O)NC(=O)C[C@H](CCN)NC(=O)[C@@H](N)CC(N)=O`, in series [1], the Ratio is 2.21.

Take `CC(C)C[C@@H](N)C(=O)N[C@@H](CCN)CC(=O)NN(C)CC(=O)O`: the Ratio in series [1] came out at 1.46.

For the molecule `CC(C)CCC(=O)N[C@@H](CCN)CC(=O)NN(C)CC(=O)O`, the Ratio in series [1] is 2.82.

With `CN(CC(=O)O)NC(=O)C[C@H](CCN)NC(=O)CN`, the Ratio in series [1] came out at 2.74.

As to `CCCC[C@H](N)C(=O)N[C@@H](CCN)CC(=O)NN(C)CC(=O)O`, in series [1], the Ratio was 4.21.

Consider `CN(CC(=O)O)NC(=O)C[C@H](N)C[C@@H](O)CN`, for which the Ratio in series [1] was 1.47 to 2.25; in series [2] it was 1.13; in series [5], 1.17.

With `CN[C@H]1[C@H](O)[C@H](O[C@@H]2[C@@H](O)[C@H](O[C@H]3O[C@H]([C@@H](C)O)[C@@H](O)[C@H](O)[C@H]3N)[C@@H](N)C[C@H]2N)OC[C@@]1(C)O`, the Activity is 1.62 to 7.25% in series [9]; 1.62 to 7.25% in series [10]; “Non-Toxic” in [21]; 1.62 to 7.25% in series [3]; 1.62 to 7.25% in [16]; 1.62 to 7.25% in [4]. In addition, the Activity in [19] fell in the range of 1.62 to 7.25%. For the same molecule, the Ratio in series [1] is 7.43 to 7.99; in [2], 4.78; in series [5] it was 7.86; in [6] it was 72.

As for `CC(C)[C@H](N)C(=O)N[C@@H](CCN)CC(=O)NN(C)CC(=O)O`, the Ratio in series [1] was 2.

In the case of `CN(CC(=O)O)NC(=O)C[C@H](CCN)NC(=O)[C@@H](N)CCC(=O)O`, the Ratio in series [1] was 1.8.

For the molecule `CC(C)C[C@H](N)C(=O)N[C@@H](CCCN)CC(=O)NN(C)CC(=O)O`, the Ratio in [1] was determined as 2.3; in [2] it was 1.11; in series [5] it was 1.3.

`CN(CC(=O)O)NC(=O)C[C@H](CCN)NC(=O)[C@@H](N)CO`: the Ratio in series [1] amounted to 1.48.

The record behind these values is ChEMBL document CHEMBL4364355, “New Negamycin-Based Potent Readthrough Derivative Effective against TGA-Type Nonsense Mutations” (ACS Med Chem Lett, 2019).
